Here are results for 58 compounds from PubChem BioAssay AID504765 (Sanford-Burnham Center for Chemical Genomics, 2011).

Molecules are shown by their SMILES. Activity calls are given as the source filed them. How the calls were made is not given here.

The test deals with glucose-6-phosphate dehydrogenase-6-phosphogluconolactonase (Plasmodium falciparum 3D7). Briefly: concentration-dependent PfGluPho enzyme inhibition – biochemical, fluorescence intensity, dose response (AID 504765). The note with it: Recombinant PfG6PD enzyme, fluorescence intensity (NADPH).
Broadly, the IC50 is the concentration that gives 50% inhibition. For `CC1=CC(C)(C)Nc2ccc(OC(=O)CN3C(=O)c4cccc5cccc(c45)C3=O)cc21`, the IC50 is 6.28 µM.

For the compound `O=C(Cn1sc2ccccc2c1=O)Nc1ccc(Br)cc1`, the IC50 is 5.16 µM. In the case of `C=CCc1c(C)[nH]c(=S)c(C#N)c1C`, the IC50 was 15.3 µM. Consider `CC1(OC(=O)C2CCCC2)C(=O)C=C2C=C(c3ccsc3)N(Cc3ccc4c(c3)OCO4)C=C2C1=O` (stereo not drawn), for which the IC50 was 11.1 µM.

`CC(=O)Nc1ccc(S(=O)(=O)/N=C2\C(=O)c3ccccc3C([O-])=C2n2cc[n+](-c3ccccn3)c2)cc1`: the 50% inhibitory concentration (IC50) is 12.9 µM. As to `COC(=O)[C@H](C)NC(=O)c1cc2c(cn1)[nH]c1ccccc12`, the IC50 entry is “inactive”. On to `CCN(CC)CCn1c2ccccc2c(=O)c2c(O)ccc(O)c21`, for which the concentration for half-maximal inhibition (IC50) was 2.39 µM.

Turning to `Oc1ccc(C2C[C@H]3CC[C@@H]2C3)cc1O` (stereo partly drawn), the IC50 is 5.71 µM. Consider `CN(C)c1ccc(Cc2cc3c(O)ccc(O)c3cc(Cc3ccc(N(C)C)cc3)c2=O)cc1`, for which the 50% inhibitory concentration (IC50) is 2.05 µM. In the case of `O=c1c2ccccc2sn1-c1ccccc1`, the IC50 is 1.15 µM. `O=c1c2ccccc2[se]n1-c1ccccc1`: the 50% inhibitory concentration (IC50) was 9.66 µM.

Turning to `O=[N+]([O-])c1c(NCCCO)cc(Sc2nc3ccccc3s2)c2nonc12`, the IC50 is 12.5 µM. Turning to `COc1cc(CNc2ccc3[nH]c(=O)[nH]c3c2)ccc1OCc1ccccc1`, the IC50 result was “inactive”. For the compound `O=C(Nc1ccc(N2CCN(C(=O)c3ccco3)CC2)c(Cl)c1)c1cc2ccccc2o1`, the IC50 was 10.3 µM. `CCN1/C(=C/C=C/C=C/C=C/c2sc3ccccc3[n+]2CC)Sc2ccccc21`: the IC50 is 7.54 µM. On to `CCOC(=O)c1c(C2COc3ccccc3O2)csc1NC(=O)c1ccco1` (stereo not drawn), for which the IC50 was 14.2 µM. As for `CCOc1ccccc1NC(=O)CCCc1nc2ccccc2c(=O)[nH]1`, the IC50 is 7.4 µM.

Consider `C/C(Cn1nnc([N+](=O)[O-])n1)=N\NC(=O)c1ccccc1O`, for which the IC50 was 7.39 µM. For the compound `Clc1cccc(Cl)c1CNc1ccc(N2CCCC2)cc1`, the IC50 was 3.79 µM. The figure for `Cc1cc(C(=O)O)ccc1-n1c(C)cc(C=C2C(=O)c3ccccc3C2=O)c1C` is 7.14 µM; for `CCNc1nc(NC(C)C)nc(NS(=O)(=O)c2ccc(Cl)cc2)n1` it is 6.54 µM; for `CC(=O)Nc1ccc(S(=O)(=O)NNc2cccc(C)c2)cc1` it is “inactive”.

On to `C=CCc1ccccc1OCC(=O)N/N=C/c1ccccc1OCC`, for which the IC50 was 6.34 µM. Consider `O=S(=O)(Nc1ccccc1F)c1cccc(NC(=S)NCCN2CCOCC2)c1`, for which the IC50 was 7.87 µM.

Consider `CN(C)c1ccc(C=c2c3cc([N+](=O)[O-])ccc3n3c2cc(-c2ccccc2)[n+]3C)cc1`, for which the half-maximal inhibitory concentration (IC50) was 8.44 µM. Consider `CCOC(=O)c1c2ccc(OCC(=O)NN)cc2n2ccccc12`, for which the IC50 was 15.3 µM. For `COc1ccc(/C=C/c2nc3ccccc3n2Cc2ccc(OC)c(OC)c2)cc1`, the IC50 result is “inactive”. `COCCn1nnnc1C(c1cc2cc(OC)c(OC)cc2[nH]c1=O)N1CCN(c2ccc(O)cc2)CC1` (stereo not drawn): the IC50 result is “inactive”. Regarding `COc1ccc(NC(C)C(=O)N/N=C/c2cc(Br)ccc2OC)cc1` (stereo not drawn), the IC50 is 8.77 µM. On to `O=C(Nc1nnc(C2CC2)s1)c1ccc(Cl)nc1`, for which the IC50 is 4.18 µM. As for `CCN(CC)c1ccc(C(=C2C=CC(=[N+](CC)CC)C=C2)c2ccc(N(CC)CC)cc2)cc1`, the figure is 10.3 µM; as for `CCN1CCN(C(=S)c2ccc(O)cc2)CC1`, “inactive”.

As to `O=[N+]([O-])c1cccc(SSc2cccc([N+](=O)[O-])c2)c1`, the IC50 is 7.67 µM. The figure for `CCOc1ccccc1C=NNC(=O)CCCCC(=O)NN=Cc1ccccc1OCC` is 7.77 µM; for `Cc1c(/C=C/C(=O)c2ccc(Cl)s2)cnn1C` it is 9.12 µM.

Regarding `O=C(Nc1ccccn1)c1sc2cc([N+](=O)[O-])ccc2c1Cl`, the IC50 entry was “inactive”. Consider `Cc1ccnc(-n2sc3ccccc3c2=O)n1`, for which the half-inhibitory concentration (IC50) was 11.7 µM.

Regarding `CC(=O)Nc1ccc2c(=O)n(-c3ccccc3)sc2c1`, the IC50 is 8.52 µM.

`N#Cc1ccc2c(=O)n(-c3ccccc3)sc2c1`: the IC50 was 3.86 µM. Regarding `O=C1C=CC(=O)N1CCNc1ncc(C(F)(F)F)cc1Cl`, the IC50 is 20 µM.

In the case of `O=S(c1ccccc1O)S(=O)c1ccccc1O` (stereo not drawn), the half-inhibitory concentration (IC50) was 4.89 µM. `CCNc1ccccc1CP(=O)(c1ccccc1)c1ccccc1O` (stereo not drawn): the IC50 is 6.81 µM. As for `Cc1ccc(/C=C/C(=O)NCCc2cccc(Cl)c2)o1`, the IC50 is 7.59 µM.

With `CCN=c1scc(C)n1/N=C/c1ccc(O)c(O)c1O`, the IC50 is 6.91 µM. Take `O=C(Nc1nnc(S(=O)(=O)N2CCCCC2)s1)c1ccc(Cl)cc1`: the concentration for half-maximal inhibition (IC50) is 6.01 µM. Take `NC(=O)N/N=C/c1ccc(-n2nncc2-c2ccc(Cl)cc2)cc1`: the half-inhibitory concentration (IC50) is 11.8 µM. With `O=C(Cn1sc2ccccc2c1=O)Nc1ccccc1`, the IC50 is 1.97 µM. `COc1cccc(CNc2ccc3[nH]c(=O)[nH]c3c2)c1OCc1ccc(F)cc1`: the IC50 entry was “inactive”. `COc1cccc(-c2c(C(=O)N/N=C/c3ccc(C)o3)nnn2-c2nonc2N)c1`: the IC50 is 13.2 µM. On to `O=C(CNc1ccc2c(c1)OCO2)N/N=C\c1cn(Cc2ccccc2)c2ccccc12`, for which the IC50 result is “inactive”. As to `COC(=O)CCC(=O)OC1(C)C(=O)C2=CN(c3ccccc3)C(c3ccc(OC)cc3)=CC2=C(Br)C1=O` (stereo not drawn), the IC50 is 3.16 µM. As to `O=C(Nc1nc(-c2ccncc2)cs1)C1COc2ccccc2O1` (stereo not drawn), the IC50 result is “inactive”. The figure for `CCOc1ccc2ccccc2c1/C=N/NC(=O)c1ccncc1` is 3.49 µM. Consider `COc1ccc(CN(C)S(=O)(=O)c2nnc(NC(=O)c3ccc(C)cc3)s2)cc1OC`, for which the IC50 was 7.6 µM. As for `CCc1ccccc1N1CSC2=C(C#N)C(c3ccccc3F)CC(=O)N2C1` (stereo not drawn), the IC50 is 9.2 µM. Take `O=C(OCC(=O)c1ccc([N+](=O)[O-])cc1)/C(=C\c1ccc(Cl)cc1)NC(=O)c1ccccc1`: the IC50 result was “inactive”. Turning to `Cc1cc(SCC(=O)N/N=C/c2ccco2)nc2ccccc12`, the IC50 was 8.11 µM. As for `COCc1cc(=O)n2[nH]c(C(C)(C)C)cc2n1`, the figure is 14.1 µM.
